The test system of assay [1] is P. aeruginosa PAO1 variant, which constitutively expresses AmpC. The assay can be described thus: Combinatorial effect: MIC of piperacillin (PIPC) by agar plate dilution (CLSI) with test compound. In kind it is cell-based. The following applies: for MIC: Pseudomonas aeruginosa, PAO1; for effect of the compound in combination with an antibiotic: result in words. On the procedure: The biological activity of the above-mentioned compounds of formulae (H) and (s) can be measured as follows. Specifically, an enzyme inhibitory activity (IC50 value) against AmpC enzyme which is a class C β-lactamase was determined using nitrocephin as a substrate to check whether or not the compounds had the inhibitory activity and compare the activities of them. Further, using constitutive AmpC producing Pseudomonas aeruginosa, a combined antimicrobial activity (MIC) was measured when using Piperacillin (PIPC) as an antibiotic and the compound of formula (H) or (s) in combination to check whether or not the antimicrobial activity of PIPC could be restored.
The combinatorial effect of the test compound with a β-lactam agent against bacteria was evaluated using AmpC constitutive expression strain selected from P. aeruginosa PAO1 through agent exposure. Using piperacillin (PIPC, Sigma-Aldrich) as a β-lactam agent, measurement was conducted by agar plate dilution process in which minimal inhibitory concentration (MIC) of PIPC is based on Clinical and Laboratory Standards Institute (CLSI process). That is, an agara plate containing 4 µg/mL (final concentration) of test compound and PIPC at each concentration in Mueller-Hinton agar (Becton, Dickinson and Company) was made, and bacteria cultured overnight in cation-adjusted Muller-Hinton broth (Becton, Dickinson and Company) were adjusted in the same medium so as to have 10^4 CFU/spot and inoculated on a plate containing an agent. This plate containing an agent was cultured overnight at 35 °C, and the minimum agent concentration in which no growth of bacteria is observed was determined to be MIC.

For the next assay, the target named is T1, AmpC β-lactamase (Pseudomonas aeruginosa, UniProt P24735).
T1 construct: a DNA for encoding an AmpC β-lactamase domain excluding a signal peptide was amplified with PCR; made in house; host or cells: E. coli BL21
T1 sequence (P24735 27-397): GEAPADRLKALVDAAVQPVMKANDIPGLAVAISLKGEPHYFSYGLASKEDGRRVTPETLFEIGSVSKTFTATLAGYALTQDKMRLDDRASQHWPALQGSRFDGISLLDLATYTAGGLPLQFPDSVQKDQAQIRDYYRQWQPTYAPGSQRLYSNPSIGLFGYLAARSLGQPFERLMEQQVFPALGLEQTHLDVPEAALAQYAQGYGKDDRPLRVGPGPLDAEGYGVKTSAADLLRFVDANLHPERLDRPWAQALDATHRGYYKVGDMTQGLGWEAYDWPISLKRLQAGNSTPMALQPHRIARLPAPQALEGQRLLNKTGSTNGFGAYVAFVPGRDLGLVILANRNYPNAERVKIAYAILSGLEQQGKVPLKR
It counts as biochemical. The following applies: result in words.

SMILES strings stand for the structures. Structures can show the parent of a compound that is named as a salt.

Consider `NC(=O)[C@H]1CC[C@H]2CN1C(=O)N2OS(=O)(=O)O` [Example 24, (2R,5S)-1,6-Diazabicyclo[3.2.1]octane-2-carboxamide, 7-oxo-6-(sulfoxy)-monosodium salt], for which, in assay [1], the MIC was 64 µg/mL and the “effect of the compound in combination with an antibiotic” value was “exhibited no activity”. For the same molecule, the “β-lactamase enzyme inhibitory activity” value on AmpC β-lactamase was “exhibited no activity”.

Regarding `NC(=O)C1CCC2CN1C(=O)N2OS(=O)(=O)O` [Example 23, (2S,5R)-1,6-Diazabicyclo[3.2.1]octane-2-carboxamide, 7-oxo-6-(sulfoxy)-monosodium salt], in assay [1], the MIC was determined as 4 µg/mL and the “effect of the compound in combination with an antibiotic” value is “exhibited the activities”. The “β-lactamase enzyme inhibitory activity” value on AmpC β-lactamase is reported as “exhibited the activities”.

As to `C[C@]1(Cn2ccnn2)[C@H](C(=O)O)N2C(=O)C[C@H]2S1(=O)=O` [TAZ, Tazobactam, reference compound], the MIC in assay [1] was 64 µg/mL.

As usually defined, the MIC is the lowest concentration found to suppress growth.

Source of the values: patent publication EP2657234B1, “OPTICALLY-ACTIVE DIAZABICYCLOOCTANE DERIVATIVE AND METHOD FOR MANUFACTURING SAME” (Meiji Seika Pharma Co., Ltd., priority 2010, dated 2012).
